Assay results: US9133257B2, “Antimicrobial peptides and derived metapeptides” (priority 1998, dated 2015)
Ends that are not written are not given here.

How the values were obtained:
[1] = test system: Candida Albicans ATCC 36082; set-up: key: R, resistant; S, sensitive; conditions: control strain ATCC 36082; cited from earlier work
[2] = test system: Candida Krusei ATCC 32672; set-up: key: R, resistant; S, sensitive; conditions: control strain ATCC 32672; cited from earlier work
[3] = test system: Candida Lusitaniae ATCC 42720; set-up: key: R, resistant; S, sensitive; conditions: control strain ATCC 42720; cited from earlier work
[4] = test system: Pseudomonas aeruginosa ATCC 17468; set-up: key: R, resistant; S, sensitive; conditions: control strain ATCC 17468; cited from earlier work
[5] = test system: Streptococcus pneumonia ATCC 35088; set-up: key: R, resistant; S, sensitive; conditions: control strain ATCC 35088; cited from earlier work
[6] = test system: Enterococcus Faecalis ATCC 47707; set-up: key: R, resistant; S, sensitive; conditions: control strain ATCC 47707; cited from earlier work
[7] = test system: Staphylococus Aureus ATCC 27217; set-up: key: R, resistant; S, sensitive; conditions: control strain ATCC 27217; cited from earlier work
[8] = test system: Escherichia coli ATCC 43827; set-up: key: R, resistant; S, sensitive; conditions: control strain ATCC 43827; cited from earlier work
a spectrum of pathogens = test: antimicrobial spectra in vitro (radial diffusion assay)
relevant pathogens = test: microbicidal activity in vitro at pH 5.5 vs 7.2; format: cell-based
From the text: Our preliminary data provide a basis for our central discovery that PMPs have specific, independent determinants responsible for direct antimicrobial activities and potentiation of neutrophil antimicrobial functions. We have shown that these determinants can be isolated, optimized, and utilized to design novel mosaic peptides with selective antimicrobial properties. With a goal of designing novel therapeutics that have potent and selective antimicrobial functions and low toxicity, optimizing the activities of the distinct structural determinants in such peptides is essential.
Controls contain buffer alone or non-antimicrobial proteins and organism as above. Mixtures are incubated at 37° C. for up to 48 hours, after which aliquots are quantitatively cultured and incubated for 24 to 48 hours. Killing is expressed as decrease in logarithm10 surviving CFU/ml. The limit of sensitivity in microbicidal assays is considered to be a 1 log reduction in viable cells.

[9] = test system: Salmonella typhimurium strain 14028; test: susceptibility of Salmonella typhimurium strains; format: cell-based; conditions: parental strain 14028
S. aureus strain 6850 = test: flow cytometry of membrane depolarization (DiOC5), permeabilization (PI) and killing, PMP-susceptible strain; format: cell-based
From the text: (§1) Our recent studies have provided new evidence that PMPs differ in mechanisms of action from those of other antimicrobial peptides. We used flow cytometry to study the mechanisms of action of PMPs against S. aureus strain pair 6850 (PMP^S) and JB-1 (PMP^R) in vitro. Strain JB-1 is a menadione auxotroph of parent strain 6850, and has a decreased transcytoplasmic membrane potential (ΔΨ). We used the fluorescent probes dioxycarbocyanine (DiOC5) and propidium iodide (PI) to quantify the effects of PMP-2 and human defensin NP-1 (hNP-1) on ΔΨ and permeability, respectively. […] Menadione reconstituted the PMP^R strain ΔΨ to a level equivalent to the PMP^S strain. This was associated with increased depolarization, permeabilization, and killing of the PMP^R strain due to PMP-2. Therefore, the mechanism of PMP-2 action involves rapid, pH-dependent membrane permeabilization with membrane depolarization. These effects were different from hNP-1, or the cationic antibacterial agents protamine or gentamicin.
Flow cytometry can also be used to examine kinetics and mechanisms of the action of the peptides on bacterial membrane integrity and energetics. Peptides which differ in activity or specificity for their ability to depolarize and/or permeabilize microbial membranes can also be compared by analysis of membrane depolarization, and permeabilization. DiOC5 is a charged lipophilic dye which partitions into the cytoplasm, and is dependent on intact Δψ for intracellular retention. Organisms prepared as above are labeled in darkness for 30 minutes at about 20° C. in PBS containing 0.05 μM DiOC5. Organisms are resuspended to a concentration of 5×10^8 CFU/ml in K^+MEM containing an individual peptide, and incubated at 37° C. For flow cytometry, organisms are washed, sonicated, counted, and resuspended in K^+MEM buffer. Reductions in mean DiOC5 fluorescence relative to controls are interpreted to represent loss of DiOCs, indicating membrane depolarization. Positive control cells exposed to valinomycin, as well as control cells not exposed to any peptides, are analyzed for DiOC5 fluorescence in parallel.
Propidium iodide is excluded from cells with normal membrane integrity, but enters cells permealized to molecules ≧2 nm in diameter, and can be stimulated to emit fluorescence at >620 nm. […] Cells are washed in fresh K^+MEM, sonicated, counted, and resuspended in KIMEM buffer containing 20 μM propidium iodide. Control cells exposed to ethanol (positive control for permeabilization) are assessed for propidium iodide uptake in parallel. Increases in mean propidium iodide fluorescence relative to control cells are interpreted to indicate increases in permeability.

[10] = test system: vascular endothelial cells; format: cell-based, human
From the text: (§2) The majority of known mammalian antimicrobial peptides have been localized within leukocytes (e.g., defensins), or secreted onto epithelial surfaces such as intestinal lumen or tracheal epithelium (e.g., cryptdins, tracheal antimicrobial peptide). Prohibitive levels of mammalian cell toxicity have been noted with many of these peptides when they have been tested as antimicrobial therapeutics. In contrast, PMPs exert potent in vitro microbicidal activity against a broad spectrum of bacteria and fungi under physiological conditions that exist in the intravascular space. Several PMPs are released from platelets stimulated with agonists associated with infection. Therefore, in response to tissue injury, PMPs are likely released into the mammalian bloodstream at localized sites of infection. […] These potencies compare favorably to potent conventional antimicrobial agents such as aminoglycosides or amphotericin B.
Endothelial cell injury due to peptides is measured using a standard chromium (^51Cr) release assay, described in Filler, S. G., et al., “Candida stimulates endothelial cell eicosanoid production” J Infect Dis. […] After a predetermined incubation period, the medium is aspirated and the amount of ^51Cr released into the medium is measured by scintillation. […]

human erythrocytes = format: cell-based
From the text: as §2
Four-percent (vol/vol) of washed human erythrocytes (in PBS alone, or in PBS plus 10% heat-inactivated PNHS are incubated with selected peptides ranging in concentration up to 100 times greater than geometric mean MICs. After 24 hours of incubation at 37° C., erythrocyte permeabilization and hemolysis are determined spectrophotometrically. Permeabilization and hemolysis will be compared to buffers alone, and with a triton X-100 control (100% hemolysis).

S. aureus = test: transmission electron microscopy of bacterial cells after peptide exposure; format: cell-based; conditions: 10 μg/ml, as little as 15-60 min
From the text: PMPs and tPMPs target and disrupt microbial cytoplasmic membranes. We have investigated morphologic consequences of rabbit PMP-2 and tPMP-1 exposure to bacterial cells, protoplasts, and lipid bilayers in vitro using transmission electron microscopy (TEM) and biophysical techniques. […] Ultrastructural damage precedes detectable bactericidal and bacteriolytic effects. […] It is important to reiterate that PMPs are likely released into the bloodstream in response to infection, such that they presumably accumulate locally at sites of infection to act directly and indirectly in antimicrobial host defense.

human neutrophils [11] = test: intracellular killing of S. aureus by neutrophils; format: cell-based; conditions: 2 hour time point, neutrophils lysed, quantitative culture
Method: (§3) We have initially studied the influence of PMP-2 on in vitro neutrophil phagocytosis and intracellular killing of S. aureus. In our preliminary experiments, a heterologous system was established employing human neutrophils, pooled normal human serum, or crude rabbit PMP-2. Organisms (5×10^7/ml) were pre-exposed to sub-lethal concentrations of serum or PMP-2 for 30 minutes, washed, mixed with neutrophils (20:1), and incubated at 37° C. for 2 hours. We observed a significant increase in phagocytosis of S. aureus when pre-exposed to PMP-2 (mean organisms/neutrophil=11.2), as compared with serum (mean organisms/neutrophil=6.4) or buffer control (mean organisms/neutrophil=3.7; P<0.05 for PMP-2 vs. serum or buffer). To quantify intracellular killing, neutrophils were lysed, and aliquots quantitatively cultured to enumerate surviving S. aureus cells.

human neutrophils [12] = test: neutrophil phagocytosis of S. aureus pre-exposed to sub-lethal PMP-2 or serum; format: cell-based; conditions: organisms pre-exposed 30 minutes to sub-lethal concentrations, mixed with neutrophils (20:1), 37° C., 2 hours
Method: as §3

S. aureus strain JB-1 = test: flow cytometry of membrane depolarization (DiOC5), permeabilization (PI) and killing, PMP-resistant strain; format: cell-based; conditions: PMP-resistant strain JB-1 compared with PMP-susceptible strain
From the text: as §1, with “This was associated with increased depolarization, permeabilization, and killing of the PMP^R strain due to PMP-2. Therefore, the mechanism of PMP-2 action involves rapid, pH-dependent membrane permeabilization with membrane depolarization. These effects were different from hNP-1, or the cationic antibacterial agents protamine or gentamicin.” left out
Flow cytometry can also be used to examine kinetics and mechanisms of the action of the peptides on bacterial membrane integrity and energetics. […] For flow cytometry, organisms are washed, sonicated, counted, and resuspended in K^+MEM buffer. Reductions in mean DiOC5 fluorescence relative to controls are interpreted to represent loss of DiOCs, indicating membrane depolarization. Positive control cells exposed to valinomycin, as well as control cells not exposed to any peptides, are analyzed for DiOC5 fluorescence in parallel.
Propidium iodide is excluded from cells with normal membrane integrity, but enters cells permealized to molecules ≧2 nm in diameter, and can be stimulated to emit fluorescence at >620 nm. […]

Molecule: C[C@@H]1[C@H](O)[C@@H](C)/C=C/C=C/C=C/C=C/C=C/C=C/C=C/[C@H](O[C@@H]2O[C@H](C)[C@@H](O)[C@H](N)[C@@H]2O)C[C@@H]2O[C@](O)(C[C@@H](O)C[C@@H](O)[C@H](O)CC[C@@H](O)C[C@@H](O)CC(=O)O[C@H]1C)C[C@H](O)[C@H]2C(=O)O [Amb, amphotericin B]
- Antibiotic Resistance Phenotype [1]: S
- Antibiotic Resistance Phenotype [2]: S
- Antibiotic Resistance Phenotype [3]: R

Molecule: OC(Cn1cncn1)(Cn1cncn1)c1ccc(F)cc1F [Flu, fluconazole]
- Antibiotic Resistance Phenotype [1]: S
- Antibiotic Resistance Phenotype [2]: R
- Antibiotic Resistance Phenotype [3]: R

Molecule: CN[C@H](CC(C)C)C(=O)N[C@H]1C(=O)N[C@@H](CC(N)=O)C(=O)N[C@H]2C(=O)N[C@H]3C(=O)N[C@H](C(=O)N[C@H](C(=O)O)c4cc(O)cc(O)c4-c4cc3ccc4O)[C@H](O)c3ccc(c(Cl)c3)Oc3cc2cc(c3O[C@@H]2O[C@H](CO)[C@@H](O)[C@H](O)[C@H]2O[C@H]2C[C@](C)(N)[C@H](O)[C@H](C)O2)Oc2ccc(cc2Cl)[C@H]1O [Van, vancomycin]
- Antibiotic Resistance Phenotype [4]: R
- Antibiotic Resistance Phenotype [5]: S
- Antibiotic Resistance Phenotype [6]: R
- Antibiotic Resistance Phenotype [7]: S
- Antibiotic Resistance Phenotype [8]: S

Molecule: ALYKKFKKKLLKSLKRLG [RP-1]
- pH optima for microbicidal activity (a spectrum of pathogens): 7.2 pH
- concentration for microbicidal activity (a spectrum of pathogens; in vitro): nanomolar concentration

Molecule: H-ATKKNGRKLCLDLQAAL-OH [PMP-246-63]
- pH dependence of microbicidal activity (relevant pathogens): significantly amplified at pH 5.5 as compared to pH 7.2

Molecule: hNP-1: human neutrophil defensin NP-1
- susceptibility of strain [9]: intrinsically resistant
- pH dependence of membrane permeabilization (S. aureus strain 6850; pH 7.2 vs pH 5.5): greater at pH 7.2 than at pH 5.5
- membrane permeabilization, PMP-susceptible vs PMP-resistant strain (S. aureus strain 6850; strains 6850 and JB-1 compared): equivalent

B1: PMP-2: 74 residue rabbit platelet microbicidal protein, variant of PMP-1, analogue of rPF-4 (protein, listed as Oryctolagus cuniculus)
chain: SDDPKESEGDLHCVCVKTTSLVRPRHITNLELIKAGGHCPTANLIATKKNGRKLCLDLQAALYKKKIIKKLLES
- pH dependence of microbicidal activity (relevant pathogens): significantly greater microbicidal activity at pH 5.5 vs. 7.2
- susceptibility of strain [9]: as susceptible to PMP-2 as hNP-1 hypersusceptible strains 4252s and 5996s
- damage of vascular endothelial cells [10]: minimal damage
- damage of human erythrocytes (human erythrocytes): minimal damage
- ultrastructural damage (TEM) (S. aureus): Rapid cytoplasmic membrane disruption, followed by cell wall swelling
- S. aureus cells surviving intracellular killing (human neutrophils [11]): 23.8%
- phagocytosis of S. aureus, mean organisms/neutrophil (human neutrophils [12]): 11.2 organisms/neutrophil
- depolarization, permeabilization and killing (S. aureus strain 6850; PMP-susceptible strain 6850): rapidly depolarized, permeabilized, and killed
- pH dependence of depolarization, permeabilization and killing (S. aureus strain 6850; pH 5.5 vs. pH 7.2): significantly greater at pH 5.5 vs. pH 7.2
- depolarization, permeabilization and killing (S. aureus strain JB-1): significantly less
